According to patent US20110207729A1, “BICYCLIC ACYLGUANIDINE DERIVATIVE” (ASTELLAS PHARMA INC., priority 2007, published 2011):

Target: T1, human 5-HT5A receptor (Homo sapiens, UniProt P47898)
T1 construct: expressed in transfected cells; membrane preparation
Test: Test on a human 5-HT5A receptor binding inhibition ([3H]5-CT)
Settings: membrane from HEK293 cells expressing human 5-HT5A receptor; Ki calculated from IC50 and Kd 4.95 nM
Protocol: Acquisition of HEK293 cells for forced expressions of a human 5-HT5A receptor
The ORF (open reading frame; protein coding region) of a human 5-HT5A receptor (Genbank AF498985) was cloned from a human hippocampus cDNA library, and then inserted into a pCR2.1 vector (Invitrogen), and Escherichia coli containing the plasmid was cultured in a large amount. Next, the full-length cDNA sequence of the human 5-HT5A receptor was analyzed, and recombined into a pcDNA3.1 vector (Invitrogen) as an expression vector and cultured in a large amount. HEK293 established cells (ATCC) derived from the human fetal kidney were seeded, the expression plasmid (1 μg) obtained above were added thereto with LIPOFECTAMINE 2000 (Invitrogen; 2 μl), the gene was transfected into HEK293 cells, and the expression cells were screened with a drug-resistant marker, Geneticin (G418 sulfate 500 μg/ml; Kanto Chemical Co., Inc.). Thus prepared recombinant cells which express the gene were cultured in a medium containing D-MEM (Dulbecco's modified eagle medium, Sigma), 10% FCS (Fetal calf serum: fetal bovine serum), 1% Pc./Sm (Penicillin/Streptomycin, Invitrogen), and 500 μg/ml G418 for 3 days. These experimental operations follow an manual for gene operation experiment and an instruction appended in a reagent, and the like, such as a known method (Sambrook, J. et al, Molecular Cloning—A Laboratory Manual”, Cold Spring Harabor laboratory, NY, 1989).
(1) Preparation of a Membrane from HEK293 Cells for Forced Expressions of a Human 5-HT5A Receptor
HEK293 cells for forced expressions of a human 5-HT5A receptor were cultured in a F500 plate, and scraped with a scraper. After centrifugation, a precipitate was collected, and an incubation buffer (50 mM Tris (HCl) (pH 7.4), 10 mM MgSO4, and 0.5 mM EDTA (ethylenediamine tetraacetic acid)) were added thereto. After homogenization, it was further centrifuged, and the precipitate was added with the incubation buffer, followed by thoroughly suspending. This operation was repeated, and a protein concentration was measured, thereby completing the preparation of a membrane.
(2) Test on a Human 5-HT5A Receptor Binding Inhibition
A solution of a compound to be tested and 100 μM 5-CT (5-carboxamidetriptamine) in DMSO was added to a 96-well plate at 2 μl/well, and suspended in an incubation buffer, and a membrane from HEK293 cells for forced expressions of a human 5-HT5A receptor prepared at 200 μg/ml was added at 100 μl/well. After incubation at room temperature for 15 minutes, a [^3H]5-CT solution (2 nM [^3H]5-CT, incubation buffer) was added thereto at 100 μl/well.
Separately, 100 μl of the solution was distributed into a liquid scintillation vial, and 2 ml of Aquasol II (registered trademark) was added thereto, followed by stirring. Then, a radioactivity was measured by a liquid scintillation counter. It was incubated at 37° C. for 60 minutes. The reaction mixture was sucked into 96-well GF/C filter plate that had been pre-treated with 0.2% polyethyleneimine, and washed six times with an ice-cooled, 50 mM Tris (pH 7.5) buffer. The GF/C filter plate was dried.
Microscint TMPS (registered trademark) was added thereto at 40 μl/well. A radioactivity remaining on the GF/C filter plate was measured by a top counter.
The [^3H]5-CT binding inhibiting activity by the compound to be tested in each experiment was determined as an IC50 value with a radioactivity upon addition of DMSO alone being 0% inhibition, and a radioactivity upon addition of 1 μM 5-CT being 100% inhibition. Separately, a Ki value was calculated from the Kd value of the [^3H]5-CT determined from Scatchard analysis, by the following equation.
Ki=IC50(1+Concentration of ligands added/Kd(4.95 nM))

T1 sequence (P47898 whole entry): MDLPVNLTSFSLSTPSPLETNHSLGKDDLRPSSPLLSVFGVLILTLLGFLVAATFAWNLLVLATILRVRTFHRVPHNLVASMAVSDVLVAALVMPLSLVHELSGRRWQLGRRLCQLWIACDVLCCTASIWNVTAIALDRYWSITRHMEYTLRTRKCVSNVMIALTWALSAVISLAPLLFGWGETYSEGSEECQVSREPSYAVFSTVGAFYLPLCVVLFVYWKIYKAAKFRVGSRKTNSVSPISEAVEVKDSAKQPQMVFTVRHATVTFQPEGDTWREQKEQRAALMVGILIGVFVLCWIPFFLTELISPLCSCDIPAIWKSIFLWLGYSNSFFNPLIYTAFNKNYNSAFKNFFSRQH

NC(N)=NC(=O)c1ccc2c(c1)C(C1CCOCC1)=CCC2 [Example 2-31]
Ki: 0.003 to 0.03 µM

CN(C)Cc1ccc(C2=CCCc3ccc(C(=O)N=C(N)N)cc32)cc1 [Example 2-32]
Ki: 0.003 to 0.03 µM

NC(N)=NC(=O)c1ccc2c(c1)C(c1ccccc1Oc1ccccc1)=CCC2 [Example 2-33]
Ki: 0.03 to 0.3 µM

NC(N)=NC(=O)c1ccc2c(c1)C(c1cccc(CO)c1)=CCC2 [Example 2-34]
Ki: 0.003 to 0.03 µM

NC(N)=NC(=O)c1ccc2c(c1)C(c1ccccc1CO)=CCC2 [Example 2-35]
Ki: 0.03 to 0.3 µM

CN(C)Cc1ccccc1C1=CCCc2ccc(C(=O)N=C(N)N)cc21 [Example 2-36]
Ki: 0.03 to 0.3 µM

CN(C)Cc1cccc(C2=CCCc3ccc(C(=O)N=C(N)N)cc32)c1 [Example 2-38]
Ki: 0.003 to 0.03 µM

NC(N)=NC(=O)c1ccc2c(c1)C(c1ccccc1)=C(F)CC2 [Example 2-43]
Ki: 0.0003 to 0.003 µM

CCOc1ccccc1C1=CCCc2ccc(C(=O)N=C(N)N)cc21 [Example 2-44]
Ki: 0.03 to 0.3 µM

CC(C)Oc1ccccc1C1=CCCc2ccc(C(=O)N=C(N)N)cc21 [Example 2-45]
Ki: 0.03 to 0.3 µM

NC(N)=NC(=O)c1ccc2c(c1)C(c1ccccc1[N+](=O)[O-])=CCC2 [Example 2-46]
Ki: 0.003 to 0.03 µM

NC(N)=NC(=O)c1ccc2c(c1)C(c1cccc([N+](=O)[O-])c1)=CCC2 [Example 2-47]
Ki: 0.003 to 0.03 µM

NC(N)=NC(=O)c1ccc2c(c1)C(c1ccc([N+](=O)[O-])cc1)=CCC2 [Example 2-48]
Ki: 0.0003 to 0.003 µM

NC(N)=NC(=O)c1ccc2c(c1)C(c1ccncc1)=CCC2 [Example 2-49]
Ki: 0.003 to 0.03 µM

NC(N)=NC(=O)c1ccc2c(c1)C(c1ccccc1O)=CCC2 [Example 2-50]
Ki: 0.003 to 0.03 µM

NC(N)=NC(=O)c1ccc2c(c1)C(c1cccc(O)c1)=CCC2 [Example 2-51]
Ki: 0.0003 to 0.003 µM

NC(N)=NC(=O)c1ccc2c(c1)C(c1ccc(O)cc1)=CCC2 [Example 2-52]
Ki: 0.0003 to 0.003 µM

NC(N)=NC(=O)c1ccc2c(c1)C(c1ccc(F)nc1)=CCC2 [Example 2-53]
Ki: 0.003 to 0.03 µM

COc1cc(F)ccc1C1=CCCc2ccc(C(=O)N=C(N)N)cc21 [Example 2-54]
Ki: 0.0003 to 0.003 µM

COc1cc(C#N)ccc1C1=CCCc2ccc(C(=O)N=C(N)N)cc21 [Example 2-55]
Ki: 0.0003 to 0.003 µM

CC1=C(c2ccccc2)c2cc(C(=O)N=C(N)N)ccc2CC1 [Example 2-56]
Ki: 0.0023 µM

N#Cc1cc(F)ccc1C1=CCCc2ccc(C(=O)N=C(N)N)cc21 [Example 2-57]
Ki: 0.003 to 0.03 µM

COc1ccccc1C1=C(C)CCc2ccc(C(=O)N=C(N)N)cc21 [Example 2-58]
Ki: 0.003 to 0.03 µM

CC1=C(c2ccc(C#N)cc2)c2cc(C(=O)N=C(N)N)ccc2CC1 [Example 2-59]
Ki: 0.0003 to 0.003 µM

NC(N)=NC(=O)c1ccc2c(c1)C(c1c(F)cc(F)cc1F)=CCC2 [Example 2-60]
Ki: 0.0003 to 0.003 µM

COc1ccc(C#N)cc1C1=CCCc2ccc(C(=O)N=C(N)N)cc21 [Example 2-61]
Ki: 0.003 to 0.03 µM

N#Cc1cc(C2=CCCc3ccc(C(=O)N=C(N)N)cc32)ccc1F [Example 2-62]
Ki: 0.03 to 0.3 µM

COc1cccc(C#N)c1C1=CCCc2ccc(C(=O)N=C(N)N)cc21 [Example 2-66]
Ki: 0.03 to 0.3 µM

NC(N)=NC(=O)c1ccc2c(c1)C(c1ccc(Cl)cc1F)=CCC2 [Example 2-67]
Ki: 0.0003 to 0.003 µM

COc1ccc(C2=CCCc3ccc(C(=O)N=C(N)N)cc32)c(C#N)c1 [Example 2-68]
Ki: 0.03 to 0.3 µM

Cc1cc(C)c(C2=CCCc3ccc(C(=O)N=C(N)N)cc32)c(C)c1 [Example 2-69]
Ki: 0.003 to 0.03 µM

NC(N)=NC(=O)c1ccc2c(c1)C(c1ccc(F)cc1Cl)=CCC2 [Example 2-70]
Ki: 0.0003 to 0.003 µM

COc1cc(F)ccc1C1=C(C)CCc2ccc(C(=O)N=C(N)N)cc21 [Example 2-71]
Ki: 0.003 to 0.03 µM

Cn1cc(C2=CCCc3ccc(C(=O)N=C(N)N)cc32)cn1 [Example 2-77]
Ki: 0.03 to 0.3 µM

COc1ccc(C2=CCCc3ccc(C(=O)N=C(N)N)cc32)cc1C#N [Example 2-78]
Ki: 0.003 to 0.03 µM

Cc1ccc(C2=CCCc3ccc(C(=O)N=C(N)N)cc32)c(C#N)c1 [Example 2-79]
Ki: 0.003 to 0.03 µM

CC1(C)CC=C(c2ccccc2)c2cc(C(=O)N=C(N)N)ccc21 [Example 2-80]
Ki: 0.03 to 0.3 µM

Cn1nccc1C1=CCCc2ccc(C(=O)N=C(N)N)cc21 [Example 2-81]
Ki: 0.003 to 0.03 µM

CSc1ccccc1C1=CCCc2ccc(C(=O)N=C(N)N)cc21 [Example 2-82]
Ki: 0.003 to 0.03 µM

COc1ccc(C2=CCCc3ccc(C(=O)N=C(N)N)cc32)c(F)c1 [Example 2-85]
Ki: 0.0003 to 0.003 µM

NC(N)=NC(=O)c1ccc2c(c1)C(c1cnccn1)=CCC2 [Example 2-86]
Ki: 0.03 to 0.3 µM

CCOc1ccc(C2=CCCc3ccc(C(=O)N=C(N)N)cc32)cc1 [Example 2-87]
Ki: 0.003 to 0.03 µM

CC(C)Oc1ccc(C2=CCCc3ccc(C(=O)N=C(N)N)cc32)cc1 [Example 2-88]
Ki: 0.03 to 0.3 µM

NC(N)=NC(=O)c1ccc2c(c1)C(c1ccccn1)=CCC2 [Example 2-89]
Ki: 0.03 to 0.3 µM

NC(N)=NC(=O)c1ccc2c(c1)C(c1ccc(F)cc1F)=C(F)CC2 [Example 2-90]
Ki: 0.003 to 0.03 µM

N#Cc1ccc(C2=C(F)CCc3ccc(C(=O)N=C(N)N)cc32)cc1 [Example 2-91]
Ki: 0.0003 to 0.003 µM

NC(N)=NC(=O)c1ccc2c(c1)C(c1nccs1)=CCC2 [Example 2-93]
Ki: 0.03 to 0.3 µM

COc1cc(F)c(C2=CCCc3ccc(C(=O)N=C(N)N)cc32)c(F)c1 [Example 2-94]
Ki: 0.003 to 0.03 µM

NC(N)=NC(=O)c1ccc2c(c1)C(c1ccc(F)c(F)c1F)=CCC2 [Example 2-95]
Ki: 0.0003 to 0.003 µM

NC(N)=NC(=O)c1ccc2c(c1)C(c1ccc(F)cc1)=C(F)CC2 [Example 2-96]
Ki: 0.0003 to 0.003 µM

CS(=O)(=O)c1ccc(C2=CCCc3ccc(C(=O)N=C(N)N)cc32)cc1 [Example 2-97]
Ki: 0.03 to 0.3 µM

NC(N)=NC(=O)c1ccc2c(c1)C(c1ccccc1OC(F)(F)F)=CCC2 [Example 2-98]
Ki: 0.03 to 0.3 µM

NC(N)=NC(=O)c1ccc2c(c1)C(c1c(F)ccc(F)c1F)=CCC2 [Example 2-99]
Ki: 0.0003 to 0.003 µM

COc1cc(F)c(F)cc1C1=CCCc2ccc(C(=O)N=C(N)N)cc21 [Example 2-100]
Ki: 0.003 to 0.03 µM

NC(N)=NC(=O)c1ccc2c(c1)C(c1ccc(F)cc1F)=CCC2 [Example 2-101]
Ki: 0.0003 to 0.003 µM

NC(N)=NC(=O)c1ccc2c(c1)C(c1c(F)cccc1F)=CCC2 [Example 2-105]
Ki: 0.0003 to 0.003 µM

NC(N)=NC(=O)c1ccc2c(c1)C(c1cccc(Cl)c1F)=CCC2 [Example 2-110]
Ki: 0.0003 to 0.003 µM

N#CCc1ccccc1C1=CCCc2ccc(C(=O)N=C(N)N)cc21 [Example 2-114]
Ki: 0.03 to 0.3 µM

CCC1=C(c2ccccc2)c2cc(C(=O)N=C(N)N)ccc2CC1 [Example 2-115]
Ki: 0.003 to 0.03 µM

CCCC1=C(c2ccccc2)c2cc(C(=O)N=C(N)N)ccc2CC1 [Example 2-116]
Ki: 0.03 to 0.3 µM

NC(N)=NC(=O)c1ccc2c(c1)C(c1ccc(C(F)(F)F)cc1C(F)(F)F)=CCC2 [Example 2-117]
Ki: 0.03 to 0.3 µM

NC(N)=NC(=O)c1ccc2c(c1)C(c1cncc(F)c1)=CCC2 [Example 2-123]
Ki: 0.03 to 0.3 µM

Cc1ccc(C2=CCCc3ccc(C(=O)N=C(N)N)cc32)c(Cl)c1 [Example 2-134]
Ki: 0.0003 to 0.003 µM

Cc1cc(Cl)ccc1C1=CCCc2ccc(C(=O)N=C(N)N)cc21 [Example 2-135]
Ki: 0.0003 to 0.003 µM

NC(N)=NC(=O)c1ccc2c(c1)C(c1cc(Cl)c(F)cc1F)=CCC2 [Example 2-136]
Ki: 0.003 to 0.03 µM

COc1ncccc1C1=CCCc2ccc(C(=O)N=C(N)N)cc21 [Example 2-140]
Ki: 0.003 to 0.03 µM

CC1=C(c2ccc(C)nc2)c2cc(C(=O)N=C(N)N)ccc2CC1 [Example 2-141]
Ki: 0.003 to 0.03 µM

NC(N)=NC(=O)c1ccc2c(c1)C(c1ccc(C(F)(F)F)nc1)=CCC2 [Example 2-142]
Ki: 0.03 to 0.3 µM
